Data reported in patent US20230322785A1, “ADENOSINE A2A AND A2B RECEPTOR DUAL ANTAGONISTS FOR IMMUNO-ONCOLOGY” (Merck Sharp & Dohme LLC, priority 2020, published 2023).

biological target: T1, human A2A adenosine receptor (Homo sapiens, UniProt P29274); test: A2A binding affinity, Method (B): scintillation proximity assay (SPA) with [3H]SCH58261; details: membranes of HEK293 or CHO cells expressing the human receptor
T1 construct: expressed in transfected cells; host or cells: HEK293 or CHO cells
T1 sequence (P29274 whole entry): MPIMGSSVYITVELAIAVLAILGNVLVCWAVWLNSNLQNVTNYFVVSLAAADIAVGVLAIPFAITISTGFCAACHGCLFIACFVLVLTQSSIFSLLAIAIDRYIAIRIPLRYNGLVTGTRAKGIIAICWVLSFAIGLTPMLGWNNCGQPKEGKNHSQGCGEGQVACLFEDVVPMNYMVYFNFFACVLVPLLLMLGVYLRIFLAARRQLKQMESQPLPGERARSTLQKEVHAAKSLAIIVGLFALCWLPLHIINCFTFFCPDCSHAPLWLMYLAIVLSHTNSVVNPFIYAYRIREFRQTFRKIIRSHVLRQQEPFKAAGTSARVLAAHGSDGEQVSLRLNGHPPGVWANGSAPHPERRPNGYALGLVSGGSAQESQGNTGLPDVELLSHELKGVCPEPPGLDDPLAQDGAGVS
Outline: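 Membranes from HEK293 or CHO cells expressing the receptor were pretreated with 20 µg/mL adenosine deaminase for 15 min, then bound to WGA SPA beads. [3H]SCH58261 was added at 1.25 nM in Ca/Mg-free DPBS with 10 mM MgCl2, incubated 1 h at RT, then settled 1 h. Non-specific binding used 1 µM CGS 15943. IC50 came from 4-parameter logistic fits.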

Compound | IC50
COc1cccc2c1nc(N)n1nc(CN(C)Cc3ccc(C(F)(F)F)cc3)nc21 [Example 8.3, 7-methoxy-2-((methyl(4-(trifluoromethyl)benzyl)amino)methyl)-[1,2,4]triazolo[1,5-c]quinazolin-5-amine] | 6.4 nM
COc1cccc2c1nc(N)n1nc(CC(=O)N[C@H]3CCOc4ccncc43)nc21 [Example 4.8, (S)-2-(5-amino-7-methoxy-[1,2,4]triazolo[1,5-c]quinazolin-2-yl)-N-(3,4-dihydro-2H-pyrano[3,2-c]pyridin-4-yl)acetamide] | 111 nM
COc1cccc2c1nc(N)n1nc(CNC(=O)CCc3cccc(C(F)(F)F)c3)nc21 [Example 2.5] | 25.8 nM
COc1cccc2c1nc(N)n1nc(CN[C@H](C)c3ccc(C(F)(F)F)cc3)nc21 [Example 8.2, (R)-7-methoxy-2-(((1-(4-(trifluoromethyl)phenyl)ethyl)amino)methyl)-[1,2,4]triazolo[1,5-c]quinazolin-5-amine] | 22.4 nM
COc1cccc2c1nc(N)n1nc(CCCNCc3ccc(S(F)(F)(F)(F)F)cc3)nc21 [Example 10.7, 7-methoxy-2-(3-((4-(pentafluoro-λ^6-sulfaneyl)benzyl)amino)propyl)-[1,2,4]triazolo[1,5-c]quinazolin-5-amine] | 45.2 nM
COc1cccc2c1nc(N)n1nc(C[C@@H](C)NCc3oc(C)nc3C)nc21 [Example 24.3, (R)-2-(2-(((2,4-dimethyloxazol-5-yl)methyl)amino)propyl)-7-methoxy-[1,2,4]triazolo[1,5-c]quinazolin-5-amine] | 11.1 nM
COc1cccc2c1nc(N)n1nc(CNCc3ccc(S(F)(F)(F)(F)F)cc3)nc21 [Example 8.7, 7-methoxy-2-(((4-(pentafluoro-λ^6-sulfanyl)benzyl)amino)methyl)-[1,2,4]triazolo[1,5-c]quinazolin-5-amine] | 6.4 nM
COc1cccc2c1nc(N)n1nc(CN(CC(C)F)CC(C)F)nc21 (centres unmarked) [Example 13.1, 2-((bis(2-fluoropropyl)amino)methyl)-7-methoxy-[1,2,4]triazolo[1,5-c]quinazolin-5-amine] | 3.3 nM
COc1cccc2c1nc(N)n1nc(CNCc3ccc(C(C)(C)C)cc3)nc21 [Example 7.6, 2-(((4-(tert-butyl)benzyl)amino)methyl)-7-methoxy-[1,2,4]triazolo[1,5-c]quinazolin-5-amine] | 4.3 nM
COc1cccc2c1nc(N)n1nc(CN(C)c3cccc(Br)n3)nc21 [Example 10.11, 2-(((6-bromopyridin-2-yl)(methyl)amino)methyl)-7-methoxy-[1,2,4]triazolo [1,5-c]quinazolin-5-amine] | 2.2 nM
COc1cccc2c1nc(N)n1nc(CNCC(F)(F)F)nc21 [Example 10.5, 7-methoxy-2-(((2,2,2-trifluoroethyl)amino)methyl)-[1,2,4]triazolo[1,5-c]quinazolin-5-amine] | 5.9 nM
COc1cccc2c1nc(N)n1nc(CNCCc3ccc(C(F)(F)F)cc3)nc21 [Example 8.8] | 17.3 nM
COc1cccc2c1nc(N)n1nc(CC(=O)N[C@@H]3CCOc4cc(F)ccc43)nc21 [Example 4.6, (R)-2-(5-amino-7-methoxy-[1,2,4]triazolo[1,5-c]quinazolin-2-yl)-N-(7-fluorochroman-4-yl)acetamide] | 2 nM

Results, then the compound that gave them:

IC50 | Compound
7.1 nM | COc1cccc2c1nc(N)n1nc(CN(CCC3CC3)Cc3ccc(C(F)(F)F)cc3)nc21 [Example 15.6, 2-(((2-cyclopropylethyl)(4-(trifluoromethyl)benzyl)amino)methyl)-7-methoxy-[1,2,4]triazolo[1,5-c]quinazolin-5-amine]
10 nM | COc1cccc2c1nc(N)n1nc(CNCC3CCN(c4ncc(F)cn4)CC3)nc21 [Example 14.3, 2-((((1-(5-fluoropyrimidin-2-yl)piperidin-4-yl)methyl)amino)methyl)-7-methoxy-[1,2,4]triazolo[1,5-c]quinazolin-5-amine]
2.3 nM | COc1cccc2c1nc(N)n1nc(CN(Cc3ccnc4[nH]ccc34)CC3CC3)nc21 [Example 16.10, 2-((((1H-pyrrolo[2,3-b]pyridin-4-yl)methyl)(cyclopropylmethyl)amino)methyl)-7-methoxy-[1,2,4]triazolo[1,5-c]quinazolin-5-amine]
2.6 nM | COc1cccc2c1nc(N)n1nc(CN(Cc3ccc(-c4ccccn4)cc3)CC3CC3)nc21 [Example 16.13, 2-(((cyclopropylmethyl)(4-(pyridin-2-yl)benzyl)amino)methyl)-7-methoxy-[1,2,4]triazolo[1,5-c]quinazolin-5-amine]
115 nM | COc1cccc2c1nc(N)n1nc(CN(Cc3ccc(C(F)(F)F)cc3)S(=O)(=O)C(F)(F)F)nc21 [Example 19.3, N-((5-amino-7-methoxy-[1,2,4]triazolo[1,5-c]quinazolin-2-yl)methyl)-1,1,1-trifluoro-N-(4-(trifluoromethyl)benzyl)methanesulfonamide]
6.6 nM | COc1cccc2c1nc(N)n1nc(CN(Cc3ccc(OC4CCCCC4)nc3)CC3CC3)nc21 [Example 16.6, 2-((((6-(cyclohexyloxy)pyridin-3-yl)methyl)(cyclopropylmethyl)amino)methyl)-7-methoxy-[1,2,4]triazolo[1,5-c]quinazolin-5-amine]
23.6 nM | COc1cccc2c1nc(N)n1nc(CN(CCc3ccc(C(F)(F)F)cc3)CC3CCC3)nc21 [Example 15.12, 2-(((cyclobutylmethyl)(4-(trifluoromethyl)phenethyl)amino)methyl)-7-methoxy-[1,2,4]triazolo[1,5-c]quinazolin-5-amine]
7.5 nM | COc1cccc2c1nc(N)n1nc(CN(Cc3ccc(C(F)(F)F)cc3)S(C)(=O)=O)nc21 [Example 19.2, N-((5-amino-7-methoxy-[1,2,4]triazolo[1,5-c]quinazolin-2-yl)methyl)-N-(4-(trifluoromethyl)benzyl)methanesulfonamide]
10.9 nM | COc1cccc2c1nc(N)n1nc(CCNCC(F)(F)C(F)(F)F)nc21 [Example 22.8, 7-methoxy-2-(2-((2,2,3,3,3-pentafluoropropyl)amino)ethyl)-[1,2,4]triazolo[1,5-c] quinazolin-5-amine]
123 nM | COc1cccc2c1nc(N)n1nc(CN(Cc3ccc(OC(F)(F)F)cc3)CC3CCCC3)nc21 [Example 15.9, 2-(((cyclopentylmethyl)(4-(trifluoromethoxy)benzyl)amino)methyl)-7-methoxy-[1,2,4]triazolo[1,5-c]quinazolin-5-amine]
14.6 nM | COc1cccc2c1nc(N)n1nc(CN(Cc3cccc(Br)n3)CC3CC3)nc21 [Example 16.3, 2-((((6-bromopyridin-2-yl)methyl)(cyclopropylmethyl)amino)methyl)-7-methoxy-[1,2,4]triazolo[1,5-c]quinazolin-5-amine]
11.1 nM | C=CCN(Cc1ccc(C(F)(F)F)cc1)Cc1nc2c3cccc(OC)c3nc(N)n2n1 [Example 21.1, 2-((allyl(4-(trifluoromethyl)benzyl)amino)methyl)-7-methoxy-[1,2,4]triazolo[1,5-c]quinazolin-5-amine]
20.2 nM | COc1cccc2c1nc(N)n1nc(CN(Cc3ccc(C(F)(F)F)cc3)C[C@@H]3CO3)nc21 [Example 18.1, (R)-7-methoxy-2-(((oxiran-2-ylmethyl)(4-(trifluoromethyl)benzyl)amino)methyl)-[1,2,4]triazolo[1,5-c]quinazolin-5-amine]
16.7 nM | COc1cccc2c1nc(N)n1nc(CCNCc3ccc(C(F)(F)F)cc3)nc21 [Example 22.3, 7-methoxy-2-(2-((4-(trifluoromethyl)benzyl)amino)ethyl)-[1,2,4]triazolo[1,5-c]quinazolin-5-amine]
3.9 nM | COc1cccc2c1nc(N)n1nc(CN(Cc3ccc(OC(F)(F)F)cc3)CC3CC3)nc21 [Example 15.7, 2-(((cyclopropylmethyl)(4-(trifluoromethoxy)benzyl)amino)methyl)-7-methoxy-[1,2,4]triazolo[1,5-c]quinazolin-5-amine]
27.3 nM | COc1cccc2c1nc(N)n1nc(CCN[C@@H](C)c3ccc(C(F)(F)F)cc3)nc21 [Example 22.7, (S)-7-methoxy-2-(2-((1-(4-(trifluoromethyl)phenyl)ethyl)amino)ethyl)-[1,2,4]triazolo[1,5-c]quinazolin-5-amine]
